Reference: patent US12180193B2, “Accelerating fibrosarcoma protein degrading compounds and associated methods of use” (Arvinas Operations, Inc., priority 2020, dated 2024)

Legend:
[1] = target: T1, BRAF V600E (Homo sapiens, UniProt P15056, V600E); assay: Cellular assay of target protein degradation, T-Rex 293 cells stably transfected with HA-BRAF_V600E (HA immunofluorescence, high content imaging); format: cell-based; conditions: T-Rex 293 HA-BRAF V600E; for DC50: half maximal degradation, read-out: BRaf V600E DC50; for Dmax: maximum degradation observed
T1 construct: expressed in transfected cells
Protocol: Protocol for a cellular assay of target protein degradation (T-Rex 293 cells). T-Rex 293 cells were purchased from Invitrogen (#R71007), and stably transfected with a pcDNA4/TO_HA-BRAF_V600E construct, using 400 ug Zeocin for selection. V600e cells are plated in Dulbecco's Modified Eagle Medium (DMEM; Gibco #11965118) containing 10% fetal bovine serum (FBS; Gibco #16000044) and 1 ng/mL doxycycline (Selleckchem #4163) at a density of 5,000 cells/well in 50 μl on poly-D-lysine (PDL) coated, black clear bottom 96-well plates (Corning #354640) and incubated for 24 hours at 37° C. with 5% C02. The following day 50 ul of tested compound was added at 2x concentration in DMEM with a final concentration ranging from 1 μM to 0.1 nM in 0.1% dimethylsulfoxide (DMSO), and incubated for 24 hours at 37° C. with 5% CO2. At the end of the experimental treatment, the media was flicked off and cells washed once with phosphate-buffered saline (PBS)++ (PBS with CaCl and MgCl) and gently replacing with 200 μl PBS++ per well. The PBS++ was removed and 50 uL 4% paraformaldehyde (PFA; EMS #15710) in PBS++ was added, and incubate at room temperature for 15 minutes. Cells were washed once with PBS++ and 50 uL 0.1% Triton X-100 (Fisher #BP151-500) in PBS++ was added. Plate was incubate for 5 minutes at room temperature. Cells were was once with PBS++. Cells were blocked with 100 uL Licor blocking buffer (Licor #927-50000) for 1 hour at room temperature. Next, 50 uL of HA antibody (CST #3724) at 1:1000 in Licor blocking buffer was added, and the plate incubate overnight at 4° C. The plates were parafilmed to prevent evaporation. Plate was washed three times with 200 uL PBS++. Fifty microliters of HCS secondary antibody solution [1:1000 Hoechst (Invitrogen #H3570), 1:1000 phalloidin (Invitrogen #A22287) and 1:5000 Alexa fluor (Invitrogen #A11008)] was added and incubated for 1 hour. Plate was wash three times with 200 uL PBS++, and imaged on a high content reader (ImageXpress Micro XLS, Molecular Devices).
(§1) The concentration of exemplary compound that leads to half maximal degradation (DC50) as well as the maximum degradation observed (Dmax, conventionally expressed as a percentage of control), which are below in Table 2 for the exemplary compounds of Table 1.

[2] = target: T2, BRAF G466V (Homo sapiens, UniProt P15056, G466V); assay: Cellular assay of target protein degradation, T-Rex 293 cells stably transfected with HA-BRAF G466V (HA immunofluorescence, high content imaging); format: cell-based; conditions: T-Rex 293 HA-BRAF G466V; for DC50: half maximal degradation, read-out: BRaf G466V DC50; for Dmax: maximum degradation observed
T2 construct: expressed in transfected cells
Protocol: Protocol for a cellular assay of target protein degradation (T-Rex 293 cells). T-Rex 293 cells were purchased from Invitrogen (#R71007), and stably transfected with a pcDNA4/TO_HA-BRAF G466V construct, using 400 ug Zeocin for selection. G466V cells are plated in Dulbecco's Modified Eagle Medium (DMEM; Gibco #11965118) containing 10% fetal bovine serum (FBS; Gibco #16000044) and 0.75 ng/mL doxycycline (Selleckchem #4163) at a density of 5,000 cells/well in 50 μl on poly-D-lysine (PDL) coated, black clear bottom 96-well plates (Corning #354640) and incubated for 24 hours at 37° C. with 5% CO2. The following day 50 ul of tested compound was added at 2x concentration in DMEM with a final concentration ranging from 30 nM to 3 pM in 0.1% dimethylsulfoxide (DMSO), and incubated for 24 hours at 37° C. with 5% CO2. At the end of the experimental treatment, the media was flicked off and cells washed once with phosphate-buffered saline (PBS)++ (PBS with CaCl and MgCl) and gently replacing with 200 μl PBS++ per well. The PBS++ was removed and 50 uL 4% paraformaldehyde (PFA; EMS #15710) in PBS++ was added, and incubate at room temperature for 15 minutes. Cells were washed once with PBS++ and 50 uL 0.1% Triton X-100 (Fisher #BP151-500) in PBS++ was added. Plate was incubate for 5 minutes at room temperature. Cells were was once with PBS++. Cells were blocked with 100 uL Licor blocking buffer (Licor #927-50000) for 1 hour at room temperature. Next, 50 uL of HA antibody (CST #3724) at 1:1000 in Licor blocking buffer was added, and the plate incubate overnight at 4° C. The plates were parafilmed to prevent evaporation. Plate was washed three times with 200 uL PBS++. Fifty microliters of HCS secondary antibody solution [1:1000 Hoechst (Invitrogen #H3570), 1:1000 phalloidin (Invitrogen #A22287) and 1:5000 Alexa fluor (Invitrogen #A11008)] was added and incubated for 1 hour. Plate was wash three times with 200 uL PBS++, and imaged on a high content reader (ImageXpress Micro XLS, Molecular Devices).
as §1

T2 sequence (P15056 whole entry G466V): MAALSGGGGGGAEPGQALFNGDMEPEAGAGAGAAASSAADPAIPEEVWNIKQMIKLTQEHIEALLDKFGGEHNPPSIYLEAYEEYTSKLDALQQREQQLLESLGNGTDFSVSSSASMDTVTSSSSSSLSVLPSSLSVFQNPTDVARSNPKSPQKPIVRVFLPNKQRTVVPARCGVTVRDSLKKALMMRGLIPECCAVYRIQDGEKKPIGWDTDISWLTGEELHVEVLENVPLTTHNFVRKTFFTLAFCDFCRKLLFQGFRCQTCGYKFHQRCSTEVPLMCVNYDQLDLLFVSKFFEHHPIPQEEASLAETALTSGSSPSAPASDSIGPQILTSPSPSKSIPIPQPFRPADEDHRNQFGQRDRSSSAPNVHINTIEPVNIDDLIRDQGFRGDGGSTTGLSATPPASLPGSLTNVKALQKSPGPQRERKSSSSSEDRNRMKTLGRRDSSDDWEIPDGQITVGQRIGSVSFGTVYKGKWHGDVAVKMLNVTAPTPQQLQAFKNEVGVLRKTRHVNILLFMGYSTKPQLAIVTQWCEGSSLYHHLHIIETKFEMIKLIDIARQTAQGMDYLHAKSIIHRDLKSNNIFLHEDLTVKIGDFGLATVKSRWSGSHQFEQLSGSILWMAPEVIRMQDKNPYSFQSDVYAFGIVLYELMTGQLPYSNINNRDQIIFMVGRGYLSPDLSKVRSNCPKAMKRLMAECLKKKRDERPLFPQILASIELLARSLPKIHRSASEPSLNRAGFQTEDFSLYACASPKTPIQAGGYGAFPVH
T1 sequence (P15056 whole entry V600E): as the sequence (P15056 whole entry G466V) above, with V466G, V600E counted along it

| DC50 [1] [nM] | Dmax [1] [%] | DC50 [2] [nM] | Dmax [2] [%] | Structure (SMILES) |
| --- | --- | --- | --- | --- |
| 5 to 50 | 35 to 70 | 1 to 10 | 35 to 70 | O=C1CCC(N2Cc3cc(N4CCC(F)(CN5CC6(C5)CN(c5ccc(-c7cnc8[nH]cc(C(=O)c9c(F)ccc(NS(=O)(=O)N%10CC[C@@H](F)C%10)c9F)c8c7)cc5)C6)CC4)ccc3C2=O)C(=O)N1 (stereo partly drawn) [Compound 19, (3R)-N-[3-(5-{4-[6-({1-[2-(2,6-dioxopiperidin-3-yl)-1-oxo-2,3-dihydro-1H-isoindol-5-yl]-4-fluoropiperidin-4-yl}methyl)-2,6-diazaspiro[3.3]heptan-2-yl]phenyl}-1H-pyrrolo[2,3-b]pyridine-3-carbonyl)-2,4-difluorophenyl]-3-fluoropyrrolidine-1-sulfonamide] |
| 5 to 50 | 35 to 70 | < 1 | 35 to 70 | COc1cc(N2CC3(C2)CN(CC2CCN(c4ccc(-c5cnc6[nH]cc(C(=O)c7c(F)ccc(NS(=O)(=O)N8CC[C@@H](F)C8)c7F)c6c5)cc4)CC2)[C@@H]3C)cc2c1C(=O)N(C1CCC(=O)NC1=O)C2 (stereo partly drawn) [Compound 20, (3R)-N-(3-{5-[4-(4-{[(1R)-6-[2-(2,6-dioxopiperidin-3-yl)-7-methoxy-1-oxo-2,3-dihydro-1H-isoindol-5-yl]-1-methyl-2,6-diazaspiro[3.3]heptan-2-yl]methyl}piperidin-1-yl)phenyl]-1H-pyrrolo[2,3-b]pyridine-3-carbonyl}-2,4-difluorophenyl)-3-fluoropyrrolidine-1-sulfonamide] |
| 5 to 50 | 35 to 70 | 1 to 10 | 35 to 70 | COc1cc(N2CC3(CN(CCc4ccc(-c5cnc6[nH]cc(C(=O)c7c(F)ccc(NS(=O)(=O)N8CC[C@@H](F)C8)c7F)c6c5)cc4)C3)C2)cc2c1C(=O)N(C1CCC(=O)NC1=O)C2 (stereo partly drawn) [Compound 21, (3R)-N-(3-{5-[4-(2-{6-[2-(2,6-dioxopiperidin-3-yl)-7-methoxy-1-oxo-2,3-dihydro-1H-isoindol-5-yl]-2,6-diazaspiro[3.3]heptan-2-yl}ethyl)phenyl]-1H-pyrrolo[2,3-b]pyridine-3-carbonyl}-2,4-difluorophenyl)-3-fluoropyrrolidine-1-sulfonamide] |
| 5 to 50 | 35 to 70 | < 1 | 35 to 70 | COc1cc(CCCN2CC3(C2)CN(c2ccc(-c4cnc5[nH]cc(C(=O)c6c(F)ccc(NS(=O)(=O)N7CC[C@@H](F)C7)c6F)c5c4)cc2)C3)cc2c1C(=O)N(C1CCC(=O)NC1=O)C2 (stereo partly drawn) [Compound 22, (3R)-N-(3-{5-[4-(6-{3-[2-(2,6-dioxopiperidin-3-yl)-7-methoxy-1-oxo-2,3-dihydro-1H-isoindol-5-yl]propyl}-2,6-diazaspiro[3.3]heptan-2-yl)phenyl]-1H-pyrrolo[2,3-b]pyridine-3-carbonyl}-2,4-difluorophenyl)-3-fluoropyrrolidine-1-sulfonamide] |
| > 500 |  | > 30 |  | O=C1CCC(N2Cc3cc(N4CC[C@H]4COc4ccc(-c5cnc6[nH]cc(C(=O)c7c(F)ccc(NS(=O)(=O)N8CC[C@@H](F)C8)c7F)c6c5)cc4)ccc3C2=O)C(=O)N1 (stereo partly drawn) [Compound 23, (3R)-N-{3-[5-(4-{[(2S)-1-[2-(2,6-dioxopiperidin-3-yl)-1-oxo-2,3-dihydro-1H-isoindol-5-yl]azetidin-2-yl]methoxy}phenyl)-1H-pyrrolo[2,3-b]pyridine-3-carbonyl]-2,4-difluorophenyl}-3-fluoropyrrolidine-1-sulfonamide] |
| 5 to 50 | 35 to 70 | < 1 | > 70 | O=C1CCC(N2Cc3cc(N4CCC(CN5CCN(c6ccc(-c7cnc8[nH]cc(C(=O)c9c(F)ccc(NS(=O)(=O)N%10CC[C@@H](F)C%10)c9F)c8c7)cn6)CC5)CC4)ccc3C2=O)C(=O)N1 (stereo partly drawn) [Compound 25, (3R)-N-[3-(5-{6-[4-({1-[2-(2,6-dioxopiperidin-3-yl)-1-oxo-2,3-dihydro-1H-isoindol-5-yl]piperidin-4-yl}methyl)piperazin-1-yl]pyridin-3-yl}-1H-pyrrolo[2,3-b]pyridine-3-carbonyl)-2,4-difluorophenyl]-3-fluoropyrrolidine-1-sulfonamide] |
| > 500 | > 70 | < 1 | 35 to 70 | O=C1CCC(N2Cc3cc(N4CC5(CN(c6ccc(-c7cnc8[nH]cc(C(=O)c9c(F)ccc(NS(=O)(=O)N%10CC[C@@H](F)C%10)c9F)c8c7)cc6)C5)C4)ccc3C2=O)C(=O)N1 (stereo partly drawn) [Compound 26, (3R)-N-{3-[5-(4-{6-[2-(2,6-dioxopiperidin-3-yl)-1-oxo-2,3-dihydro-1H-isoindol-5-yl]-2,6-diazaspiro[3.3]heptan-2-yl}phenyl)-1H-pyrrolo[2,3-b]pyridine-3-carbonyl]-2,4-difluorophenyl}-3-fluoropyrrolidine-1-sulfonamide] |
| 5 to 50 | > 70 | 1 to 10 | 35 to 70 | O=C1CC[C@H](NC(=O)c2ccc(N3CCN(CCc4ccc(-c5cnc6[nH]cc(C(=O)c7c(F)ccc(NS(=O)(=O)N8CC[C@@H](F)C8)c7F)c6c5)cc4)CC3)cc2F)C(=O)N1 [Compound 27, 4-[4-[2-[4-[3-[2,6-difluoro-3-[[(3R)-3-fluoropyrrolidin-1-yl]sulfonylamino]benzoyl]-1H-pyrrolo[2,3-b]pyridin-5-yl]phenyl]ethyl]piperazin-1-yl]-N-[(3S)-2,6-dioxo-3-piperidyl]-2-fluoro-benzamide] |
| 50 to 500 | > 70 | < 1 | 35 to 70 | O=C1CC[C@@H](NC(=O)c2ccc(N3CCN(CCc4ccc(-c5cnc6[nH]cc(C(=O)c7c(F)ccc(NS(=O)(=O)N8CC[C@@H](F)C8)c7F)c6c5)cc4)CC3)cc2F)C(=O)N1 [Compound 28, 4-{4-[2-(4-{3-[2,6-difluoro-3-({[(3R)-3-fluoropyrrolidin-1-yl]sulfonyl}amino)benzoyl]-1H-pyrrolo[2,3-b]pyridin-5-yl}phenyl)ethyl]piperazin-1-yl}-N-[(3R)-2,6-dioxopiperidin-3-yl]-2-fluorobenzamide] |
| 5 to 50 | 35 to 70 | 1 to 10 | 35 to 70 | O=C1CC[C@H](NC(=O)c2ccc(N3CCC(CN4CC5(C4)CN(c4ccc(-c6cnc7[nH]cc(C(=O)c8c(F)ccc(NS(=O)(=O)N9CC[C@@H](F)C9)c8F)c7c6)cc4)C5)CC3)cc2F)C(=O)N1 [Compound 29, 4-(4-{[6-(4-{3-[2,6-difluoro-3-({[(3R)-3-fluoropyrrolidin-1-yl]sulfonyl}amino)benzoyl]-1H-pyrrolo[2,3-b]pyridin-5-yl}phenyl)-2,6-diazaspiro[3.3]heptan-2-yl]methyl}piperidin-1-yl)-N-[(3S)-2,6-dioxopiperidin-3-yl]-2-fluorobenzamide] |
